How the values were obtained:
Experiment in all cases: Determination of the minimum inhibitory concentration (MIC value) in microtitre plates
A. niger = type: cell-based, Aspergillus niger ATCC 6275; conditions: optical density at 620 nm, 5 days at 28° C., MIC = ≦20% growth; tested at 100; 10 and 1 ppm (approximate values); (2), (3), (4) at 120; 60; 30; 15; 7.5; 3.75 ppm
Protocol: (§1) Determination of the Minimum Inhibitory Concentration (MIC Value) in Microtitre Plates Nutrient Medium Casein/soybean flour/peptone bouillon for the preparation of preliminary cultures of the test bacteria and yeast. Mycological slant agar for the preliminary culture of moulds Examples of Test Microbes: Mould: Aspergillus niger ATCC 6275 Procedure: The test substances are pre-dissolved in dimethyl sulfoxide (DMSO) and tested in a series of dilutions of 1:2. Bacteria and yeast are cultured overnight in CASO bouillon; the mould is cultured on myco-logical slant agar and sponged off with 10 ml of 0.85% sodium chloride solution (+0.1% Triton X-100). All the test microbes are adjusted to a germ count of 1−5×10^6 KBE/ml using 0.85% sodium chloride solution. The test substances are pre-pipetted into microtitre plates in an amount of 8 μl per well. Pre-diluted microbe suspensions are diluted 1:100 in CASO bouillon (bacteria and yeast) or Sabouraud 2% glucose bouillon (mould) and added to the test substances in an amount of 192 μl per well. The test batches are incubated for 48 hours at 37° C. (bacteria and yeast) or for 5 days at 28° C. (mould). After incubation, the growth is determined by means of the clouding of the test batches (optical density) at 620 nm in a microplate reader. The concentration of substance at which (compared with the growth control) a marked inhibition of growth (≦20% growth) of the test microbes can be observed is given as the minimum inhibitory concentration (MIC value). One microtitre plate is used per test microbe and substance concentration. All substances are tested in duplicate.

S. aureus = type: cell-based; conditions: optical density at 620 nm, 48 hours at 37° C., MIC = ≦20% growth; tested at 100; 10 and 1 ppm (approximate values); (2), (3), (4) at 120; 60; 30; 15; 7.5; 3.75 ppm
Source text: as §1, with “Bacteria: Staphylococcus hominis DMS 20328” for “Mould: Aspergillus niger ATCC 6275”

P. aeruginosa = type: cell-based, Pseudomonas aeruginosa CIP A-22; conditions: optical density at 620 nm, 48 hours at 37° C., MIC = ≦20% growth; tested at 100; 10 and 1 ppm (approximate values); (2), (3), (4) at 120; 60; 30; 15; 7.5; 3.75 ppm
Protocol: as §1, with “Bacteria: Pseudomonas aeruginosa CIP A-22” for “Mould: Aspergillus niger ATCC 6275”

C. albicans = type: cell-based, Candida albicans ATCC 10231; conditions: optical density at 620 nm, 48 hours at 37° C., MIC = ≦20% growth; tested at 100; 10 and 1 ppm (approximate values); (2), (3), (4) at 120; 60; 30; 15; 7.5; 3.75 ppm
Protocol: as §1, with “Yeast: Candida albicans” for “Mould: Aspergillus niger”, “10231” for “6275”

E. coli = type: cell-based, Escherichia coli NCTC 8196; conditions: optical density at 620 nm, 48 hours at 37° C., MIC = ≦20% growth; tested at 100; 10 and 1 ppm (approximate values); (2), (3), (4) at 120; 60; 30; 15; 7.5; 3.75 ppm
Protocol: as §1, with “Bacteria: Escherichia coli NCTC 8196” for “Mould: Aspergillus niger ATCC 6275”

CC(C)(C)c1csc(/C=C/c2cccc(O)c2)n1 [Compound of formula (17)]
>100 ppm: MIC values in ppm A. niger (A. niger) | MIC values in ppm S. aureus (S. aureus) | MIC values in ppm P. aeruginosa (P. aeruginosa) | MIC values in ppm C. albicans (C. albicans) | MIC values in ppm E. coli (E. coli)

COc1ccc(/C=C/c2nc(C(C)(C)C)cs2)cc1O [Compound of formula (18)]
>100 ppm: MIC values in ppm A. niger (A. niger) | MIC values in ppm S. aureus (S. aureus) | MIC values in ppm P. aeruginosa (P. aeruginosa) | MIC values in ppm C. albicans (C. albicans) | MIC values in ppm E. coli (E. coli)

CCOc1cc(/C=C/c2nc(C(C)(C)C)cs2)ccc1O [Compound of formula (19)]
>100 ppm: MIC values in ppm A. niger (A. niger) | MIC values in ppm S. aureus (S. aureus) | MIC values in ppm P. aeruginosa (P. aeruginosa) | MIC values in ppm C. albicans (C. albicans) | MIC values in ppm E. coli (E. coli)

COc1cc(/C=C/c2nc(C(C)(C)C)cs2)ccc1O [Compound of formula (20)]
>100 ppm: MIC values in ppm A. niger (A. niger) | MIC values in ppm S. aureus (S. aureus) | MIC values in ppm P. aeruginosa (P. aeruginosa) | MIC values in ppm C. albicans (C. albicans) | MIC values in ppm E. coli (E. coli)

COc1ccc(/C=C/c2nc(C(C)(C)C)cs2)c(O)c1 [Compound of formula (21)]
>100 ppm: MIC values in ppm A. niger (A. niger) | MIC values in ppm S. aureus (S. aureus) | MIC values in ppm P. aeruginosa (P. aeruginosa) | MIC values in ppm C. albicans (C. albicans) | MIC values in ppm E. coli (E. coli)

COc1cc(/C=C/c2nc(C(C)(C)C)cs2)cc(O)c1OC [Compound of formula (22)]
>100 ppm: MIC values in ppm A. niger (A. niger) | MIC values in ppm S. aureus (S. aureus) | MIC values in ppm P. aeruginosa (P. aeruginosa) | MIC values in ppm C. albicans (C. albicans) | MIC values in ppm E. coli (E. coli)

Cc1cc(/C=C/c2nc(C(C)(C)C)cs2)cc(C)c1O [Compound of formula (23)]
>100 ppm: MIC values in ppm A. niger (A. niger) | MIC values in ppm S. aureus (S. aureus) | MIC values in ppm P. aeruginosa (P. aeruginosa) | MIC values in ppm C. albicans (C. albicans) | MIC values in ppm E. coli (E. coli)

Cc1cccc(/C=C/c2nc(C(C)(C)C)cs2)c1O [Compound of formula (24)]
>100 ppm: MIC values in ppm A. niger (A. niger) | MIC values in ppm S. aureus (S. aureus) | MIC values in ppm P. aeruginosa (P. aeruginosa) | MIC values in ppm C. albicans (C. albicans) | MIC values in ppm E. coli (E. coli)

CC(C)(C)c1csc(/C=C/c2ccc(OCc3ccccc3)cc2O)n1 [Compound of formula (25)]
>100 ppm: MIC values in ppm A. niger (A. niger) | MIC values in ppm S. aureus (S. aureus) | MIC values in ppm P. aeruginosa (P. aeruginosa) | MIC values in ppm C. albicans (C. albicans) | MIC values in ppm E. coli (E. coli)

COc1cc(O)ccc1/C=C/c1nc(C(C)(C)C)cs1 [Compound of formula (26)]
>100 ppm: MIC values in ppm A. niger (A. niger) | MIC values in ppm S. aureus (S. aureus) | MIC values in ppm P. aeruginosa (P. aeruginosa) | MIC values in ppm C. albicans (C. albicans) | MIC values in ppm E. coli (E. coli)

Oc1ccc(/C=C/c2nc(-c3ccc(N4CCCC4)cc3)cs2)cc1 [Compound of formula (27)]
>100 ppm: MIC values in ppm A. niger (A. niger) | MIC values in ppm S. aureus (S. aureus) | MIC values in ppm P. aeruginosa (P. aeruginosa) | MIC values in ppm C. albicans (C. albicans) | MIC values in ppm E. coli (E. coli)

Oc1cccc(/C=C/c2nc(-c3ccc(N4CCCC4)cc3)cs2)c1 [Compound of formula (28)]
>100 ppm: MIC values in ppm A. niger (A. niger) | MIC values in ppm S. aureus (S. aureus) | MIC values in ppm P. aeruginosa (P. aeruginosa) | MIC values in ppm C. albicans (C. albicans) | MIC values in ppm E. coli (E. coli)

From US6624182B1, “Hydroxyphenylvinylthiazoles” (Ciba Specialty Chemicals Corporation, priority 1999, dated 2003)
